# Assay results as given in patent US10359436B2, “Nuclear stress response in motor neuron disease and other neurological diseases” (DIGNITY HEALTH, priority 2013, dated 2019).
# Test system: HEK293 cells
# Experiment: Quantitative immunocolocalization of RBM45 with the nuclear stress body marker HSF1 in stressed HEK293 cells
# Format: cell-based
# Settings: mitoxantrone treatment as cellular stress, quantitative immunocolocalization analysis
# Procedure: An imaging-based approach combining immunofluorescence microscopy (IF), digital deconvolution (DD), and automated image analysis (IA) is used to examine RBM45 redistribution and colocalization with markers of subnuclear structures in response to heat shock and mitoxantrone (topoisomerase II inhibitor, genotoxic stress).
# For immunocytochemistry experiments, HEK293 cells were grown and stained with antibodies, as above. Corresponding images were subjected to digital deconvolution, counting as above, and quantitative immunocolocalization with markers of subnuclear structures.
# Digital deconvolution is a mathematical post-processing method that removes out of focus light from wide field fluorescent microscopic images, based on the mathematical modeling of the behavior of light in a given imaging system, called the point spread function (PSF). The effect of deconvolution is similar, in practice, to using a confocal microscope. […] Several deconvolution procedures exist, which vary in complexity/algorithm. […]
# During image analysis, counts are based on thresholding of image pixel intensity values and counts are made using particle detection algorithms (vary size/circularity). On example of colocalization analysis is quantitative immunocolocalization analysis as described in Li et al., 2004. […]
structure (smiles),measurement,value
O=C1c2c(O)ccc(O)c2C(=O)c2c(NCCNCCO)ccc(NCCNCCO)c21 [mitoxantrone],colocalization of RBM45 with the nuclear stress body marker HSF1,significant colocalization
